The supplement of paper PMC9663587

How the values were obtained:
Paclitaxel = compound: CC(=O)O[C@H]1C(=O)[C@@]2(C)[C@H]([C@H](OC(=O)c3ccccc3)[C@]3(O)C[C@H](OC(=O)[C@H](O)[C@@H](NC(=O)c4ccccc4)c4ccccc4)C(C)=C1C3(C)C)[C@]1(OC(C)=O)CO[C@@H]1C[C@@H]2O [Paclitaxel]
THZ531 [1] = compound: T1, CN(C)C/C=C/C(=O)Nc1ccc(C(=O)N2CCC[C@@H](Nc3ncc(Cl)c(-c4c[nH]c5ccccc45)n3)C2)cc1 [THZ531]
BSJ-01-175 = compound: CN(C)C/C=C/C(=O)Nc1ccc(O[C@@H]2CCC[C@@H](Nc3ncc(Cl)c(-c4c[nH]c5ccccc45)n3)C2)cc1 [BSJ-01-175]
senexin b = compound: CN1CCN(C(=O)c2ccc3cc(CCNc4ncnc5ccc(C#N)cc45)ccc3c2)CC1 [senexin b]
Cediranib/AZD2171 = compound: COc1cc2c(Oc3ccc4[nH]c(C)cc4c3F)ncnc2cc1OCCCN1CCCC1 [Cediranib/AZD2171]
Pictilisib/GDC0941 = compound: CS(=O)(=O)N1CCN(Cc2cc3nc(-c4cccc5[nH]ncc45)nc(N4CCOCC4)c3s2)CC1 [Pictilisib/GDC0941]
AZD6738 = compound: C[C@@H]1COCCN1c1cc(C2([S@](C)(=N)=O)CC2)nc(-c2cc[nH]c3nccc2-3)n1 [AZD6738]
Ceritinib/LDK378 = compound: Cc1cc(Nc2ncc(Cl)c(Nc3ccccc3S(=O)(=O)C(C)C)n2)c(OC(C)C)cc1C1CCNCC1 [Ceritinib/LDK378]
Tivantinib/ARQ197 = compound: O=C1NC(=O)[C@@H](c2cn3c4c(cccc24)CCC3)[C@@H]1c1c[nH]c2ccccc12 [Tivantinib/ARQ197]
YKL-5-124 = compound: C=CC(=O)Nc1ccc(C(=O)Nc2[nH]nc3c2CN(C(=O)N[C@H](CN(C)C)c2ccccc2)C3(C)C)cc1 [YKL-5-124]; experiment: GR value, 72 h; higher = faster growth (1 = untreated, <0 = killing);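 further: breast cancer and non-malignant breast epithelial lines, nine half-log doses, viable cells counted by Hoechst and LIVE/DEAD dye imaging versus time-zero plates and DMSO controls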
BSJ-03-123 = compound: CC(=O)c1c(C)c2cnc(Nc3ccc(N4CCN(CCOCCOCCOCCNC(=O)COc5cccc6c5C(=O)N(C5CCC(=O)NC5=O)C6=O)CC4)cn3)nc2n(C2CCCC2)c1=O [BSJ-03-123]; experiment: as above
[2] = compound: CC(=O)c1c(C)c2cnc(Nc3ccc(N4CCNCC4)cn3)nc2n(C2CCCC2)c1=O; experiment: as above
[3] = compound: CCN1CCN(Cc2ccc(Nc3ncc(F)c(-c4cc(F)c5nc(C)n(C(C)C)c5c4)n3)nc2)CC1; experiment: as above
[4] = compound: CCc1cnn2c(NCc3ccc[n+]([O-])c3)cc(N3CCCC[C@H]3CCO)nc12; experiment: as above
LEE011/Ribociclib = compound: CN(C)C(=O)c1cc2cnc(Nc3ccc(N4CCNCC4)cn3)nc2n1C1CCCC1 [LEE011/Ribociclib]; experiment: as above
THZ531 [5] = compound: T1, THZ531; experiment: as above
THZ1 = compound: CN(C)C/C=C/C(=O)Nc1ccc(C(=O)Nc2cccc(Nc3ncc(Cl)c(-c4c[nH]c5ccccc45)n3)c2)cc1 [THZ1]; experiment: as above
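Wherever GR50, 72 h is given: breast cancer and non-malignant breast epithelial cell lines, Deep Dye Drop or Dye Drop imaging, nine half-log doses, GR normalized to time-zero plates and DMSO-only controls.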

## CAL851
Paclitaxel
  GR50, 72 h: 0.00273 µM
THZ531 [1]
  GR50, 72 h: 0.0715 µM
BSJ-01-175
  GR50, 72 h: 0.0129 µM
Senexin b
  GR50, 72 h: > 10 µM
Cediranib/AZD2171
  GR50, 72 h: 2.38 µM
Pictilisib/GDC0941
  GR50, 72 h: 0.647 µM
AZD6738
  GR50, 72 h: 4.62 µM
Ceritinib/LDK378
  GR50, 72 h: 0.74 µM
Tivantinib/ARQ197
  GR50, 72 h: 0.198 µM
YKL-5-124; 0.001 µM
  GR value: 0.137 GR
YKL-5-124; 0.003162 µM
  GR value: -0.128 GR
YKL-5-124; 0.01 µM
  GR value: -0.137 GR
YKL-5-124; 0.03162 µM
  GR value: -0.128 GR
YKL-5-124; 0.1 µM
  GR value: -0.177 GR
YKL-5-124; 0.3162 µM
  GR value: -0.275 GR
YKL-5-124; 1 µM
  GR value: -0.172 GR
YKL-5-124; 3.162 µM
  GR value: -0.25 GR
YKL-5-124; 10 µM
  GR value: -0.561 GR
BSJ-03-123; 0.001 µM
  GR value: 1.15 GR
BSJ-03-123; 0.003162 µM
  GR value: 0.948 GR
BSJ-03-123; 0.01 µM
  GR value: 0.849 GR
BSJ-03-123; 0.03162 µM
  GR value: 0.839 GR
BSJ-03-123; 0.1 µM
  GR value: 0.601 GR
BSJ-03-123; 0.3162 µM
  GR value: 0.599 GR
BSJ-03-123; 1 µM
  GR value: 0.447 GR
BSJ-03-123; 3.162 µM
  GR value: 0.209 GR
BSJ-03-123; 10 µM
  GR value: -0.238 GR
[2]; 0.0003162 µM
  GR value: 1.05 GR
[2]; 0.001 µM
  GR value: 1.07 GR
[2]; 0.003162 µM
  GR value: 1.13 GR
[2]; 0.01 µM
  GR value: 1.09 GR
[2]; 0.03162 µM
  GR value: 1.17 GR
[2]; 0.1 µM
  GR value: 1.06 GR
[2]; 0.3162 µM
  GR value: 0.993 GR
[2]; 1 µM
  GR value: 1.07 GR
[2]; 3.162 µM
  GR value: 1.07 GR
[3]; 0.001 µM
  GR value: 1.09 GR
[3]; 0.003162 µM
  GR value: 0.968 GR
[3]; 0.01 µM
  GR value: 1.08 GR
[3]; 0.03162 µM
  GR value: 1.05 GR
[3]; 0.1 µM
  GR value: 1.12 GR
[3]; 0.3162 µM
  GR value: 0.914 GR
[3]; 1 µM
  GR value: 0.617 GR
[3]; 3.162 µM
  GR value: -0.0347 GR
[3]; 10 µM
  GR value: -0.233 GR
[4]; 0.0001 µM
  GR value: 0.97 GR
[4]; 0.0003162 µM
  GR value: 1.08 GR
[4]; 0.001 µM
  GR value: 0.982 GR
[4]; 0.003162 µM
  GR value: 0.681 GR
[4]; 0.01 µM
  GR value: 0.0301 GR
[4]; 0.03162 µM
  GR value: -0.178 GR
[4]; 0.1 µM
  GR value: -0.234 GR
[4]; 0.3162 µM
  GR value: -0.213 GR
[4]; 1 µM
  GR value: -0.239 GR
LEE011/Ribociclib; 0.001 µM
  GR value: 1.09 GR
LEE011/Ribociclib; 0.003162 µM
  GR value: 0.939 GR
LEE011/Ribociclib; 0.01 µM
  GR value: 0.859 GR
LEE011/Ribociclib; 0.03162 µM
  GR value: 1.1 GR
LEE011/Ribociclib; 0.1 µM
  GR value: 0.931 GR
LEE011/Ribociclib; 0.3162 µM
  GR value: 0.775 GR
LEE011/Ribociclib; 1 µM
  GR value: 0.874 GR
LEE011/Ribociclib; 3.162 µM
  GR value: 1.04 GR
LEE011/Ribociclib; 10 µM
  GR value: 1.11 GR
THZ531 [5]; 0.0001 µM
  GR value: 1.12 GR
THZ531 [5]; 0.0003162 µM
  GR value: 0.975 GR
THZ531 [5]; 0.001 µM
  GR value: 0.997 GR
THZ531 [5]; 0.003162 µM
  GR value: 0.889 GR
THZ531 [5]; 0.01 µM
  GR value: 0.924 GR
THZ531 [5]; 0.03162 µM
  GR value: 0.717 GR
THZ531 [5]; 0.1 µM
  GR value: 0.322 GR
THZ531 [5]; 0.3162 µM
  GR value: 0.0707 GR
THZ531 [5]; 1 µM
  GR value: -0.218 GR
THZ1; 0.0001 µM
  GR value: 1.01 GR
THZ1; 0.0003162 µM
  GR value: 0.917 GR
THZ1; 0.001 µM
  GR value: 0.835 GR
THZ1; 0.003162 µM
  GR value: 0.727 GR
THZ1; 0.01 µM
  GR value: 0.6 GR
THZ1; 0.03162 µM
  GR value: 0.145 GR
THZ1; 0.1 µM
  GR value: -0.146 GR
THZ1; 0.3162 µM
  GR value: -0.225 GR
THZ1; 1 µM
  GR value: -0.549 GR
